Patent US20200345725A1, “Methods and Compositions for Treating Cancer” (Omeros Corporation, priority 2019, published 2020)
“And” between values parts separate entries of the source, which are not always exact repeats. Equal values may be shown once. Marks after values point to notes of the source that are not given here.

Columns and labels:
Format in all cases: cell-based
[1] = biological target: T1, GPR174 (Homo sapiens, UniProt Q9BXC1); experiment: CRE-Luc reporter Gs signaling assay with GPR174; set-up: host or cells: HEK293 or CHO cell lines (ATCC)
Target sequence in this assay (Q9BXC1 whole entry): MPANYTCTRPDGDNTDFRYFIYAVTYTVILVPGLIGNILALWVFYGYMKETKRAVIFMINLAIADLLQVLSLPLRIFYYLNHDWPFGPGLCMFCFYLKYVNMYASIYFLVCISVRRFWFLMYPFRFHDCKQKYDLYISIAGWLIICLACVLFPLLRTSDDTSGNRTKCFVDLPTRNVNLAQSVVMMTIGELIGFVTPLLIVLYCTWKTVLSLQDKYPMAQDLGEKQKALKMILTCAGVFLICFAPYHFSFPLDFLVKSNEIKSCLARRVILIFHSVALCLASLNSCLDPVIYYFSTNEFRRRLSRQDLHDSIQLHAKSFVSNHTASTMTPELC

[2] = biological target: T2, ADBR2 (Homo sapiens, UniProt P07550); experiment: CRE-Luc reporter assay with control receptor ADBR2
T2 construct: host or cells: HEK293 or CHO cell lines (ATCC)
Protocol: The DNA/lipofectamine 2000 mix (3000 μL) was incubated at room temperature for 30 minutes and then added into a 10 cm culture dish (Corning, NY) containing 70-90% confluent cultured cells, (HEK293 or CHO cell lines (ATCC, VA)), in 15 mL of media. […] The cells were further incubated at 37° C. for various times. The media were removed and the cells lysed.
Compounds were tested in the reporter system with increasing concentrations of GPR174-interacting compounds.
The DNA/lipofectamine 2000 mix (3000 μL) was incubated at room temperature for 30 minutes and then added into a 10 cm culture dish (Corning, NY) containing 70-90% confluent cultured cells, typically HEK293 or CHO cell lines (ATCC, VA), in 15 mL of media. […] Media (26 mL) were added to the detached cells and 120 μL of transfected cells were transferred to each well on a 96-well plate. Increasing concentration of each compound in DMSO (1.2 μl) was added to the cells after plating into the 96-well plate. The cells were further incubated at 37° C. for various times. The media were removed, and the cells lysed.
ADBR2 is a GPCR, like GPR174, that activates the Gs signaling pathway.

[3] = system: human PBMCs; experiment: Th1 cytokines in supernatants of stimulated human PBMC, GPR174 inhibitor with adenosine pathway inhibitors (Examples 15, 18-22); details: donor 7; for synergy with ZM on GM-CSF (greater than the sum of the increases with each inhibitor alone) / synergy with ZM on IFN-γ (greater than the sum of the increases with each inhibitor alone) / synergy with ZM on IL-2 (greater than the sum of the increases with each inhibitor alone) / synergy with ZM on TNF (greater than the sum of the increases with each inhibitor alone): high and low concentrations, ZM 0.1 μM
Protocol: Human PBMCs, obtained from a human volunteer donor, were dispensed at density of 1×10^6 cells/well in a 96-well flat-bottom plate and were stimulated in triplicate with 1 μg/mL anti-CD3 antibody (UCHT1) and 0.1 μg/mL anti-CD28 antibody (CD28.2) in the presence of:
Supernatants from these cells were collected at 24 hours post-stimulation and the levels of IFN-γ were determined by ELISA assay. Statistical analysis was carried out using one-way ANOVA with Tukey's post-hoc multiple comparison's correction.
Human PBMCs, obtained from a human volunteer donor (donor 1), were dispensed in X-vivo15 media (Lonza) supplemented with Glutamax, penicillin and streptomycin, at density of 1×10^6 cells/well in a 96-well flat-bottom plate and were stimulated with 1 μg/mL anti-CD3 antibody (UCHT1) and 0.1 μg/mL anti-CD28 antibody (CD28.2) in the presence of:
Supernatants from these cells were collected at 24 hours post-stimulation and the levels of IFN-γ, IL-2 and TNF were determined by ELISA assays.
Human PBMCs, obtained from two individual human volunteer donors (donor 2 and donor 3), were dispensed at density of 1×10^6 cells/well in a 96-well flat-bottom plate and were stimulated with 1 μg/mL anti-CD3 antibody (UCHT1) and 0.1 μg/mL anti-CD28 antibody (CD28.2) in the presence of:
Human PBMCs, obtained from twelve individual human volunteer donors were dispensed at density of 1×10^6 cells/well in a 96-well flat-bottom plate and were stimulated in triplicate with 1 μg/mL anti-CD3 antibody (UCHT1) and 0.1 μg/mL anti-CD28 antibody (CD28.2) in the presence of:
A total of 44 experiments using PBMC from 12 healthy donors were tested (9 donors for GM-CSF), with each donor tested in 1 to 8 separate experiments, depending on the donor (1 to 4 experiments each for GM-CSF). […] Cytokines were detected in supernatants with the Legendplex (Biolegend) or the MSB (MesoScale) platforms. […] One-way ANOVA with Tukey's post-hoc multiple comparisons correction was performed to identify significant differences (FC, mean fold change; ****, p<0.0001, ***, p<0.001; **, p<0.01; *, p<0.05, ns, not significant).
Human PBMC (1×10^6 cells/well in a 96-well flat-bottom plate) obtained from donor 3 and donor 6 were stimulated with 1 μg/mL anti-CD3 antibody (UCHT1) and 0.1 μg/mL anti-CD28 antibody (CD28.2) in the presence of:
Supernatants from these cells were collected at 24 hours post-stimulation and the levels of IFN-γ, IL-2, and TNF were determined with the MSD platform (MesoScale Discovery).
Human PBMC (1×10^6 cells/well in a 96-well flat-bottom plate) obtained from donor 7 were stimulated with 1 μg/mL […] (UCHT1) and 0.1 μg/mL anti-CD28 antibody (CD28.2) in the presence of:
Supernatants from these cells were collected at 24 hours post-stimulation and the levels of IFN-γ, IL-2, TNF and GM-CSF were determined with the MSD platform (MesoScale Discovery).
Supernatants from these cells were collected at 24 hours post-stimulation and the levels of IFN-γ, IL-2 and TNF were determined with the MSD platform (MesoScale Discovery).

[4] = biological target: T1, GPR174; experiment: Cellular redistribution assay (CRA) for GPR174
Text: One method for identifying compounds capable of modulating a receptor is using a cellular redistribution assay (“CRA”). Exemplary CRA methods are found in U.S. Pat. No. 7,309,576 issued to O'Dowd et al. and in O'Dowd et al., J. Biomol. Screen. 12:175-85,2007. […] Incorporation of the NLS alters the cellular localization of the GPCR, such that the majority of the NLS-modified receptor is present in the cell interior. An NLS-modified GPCR, when interacting with a functionally active compound, is mostly localized on the cell surface. Thus, it becomes possible to identify receptor modulators without knowledge of the endogenous ligand or a surrogate ligand.
The inventors have identified a number of compounds that inhibit GPR174 using a CRA assay similar to that described in U.S. Pat. No. 7,309,576 and in O'Dowd et al., J. Biomol. Screen. 12:175-85, 2007. These compounds are described in detail below.
(§1) The inventors used a CRA similar to that described in U.S. Pat. No. 7,309,576 and O'Dowd et al., J. Biomol. Screen. 12:175-85, 2007 to identify compounds that are capable of interacting with GPR174 using a library of approximately 370,000 chemical entities. Briefly described, the CRA assay described in U.S. Pat. No. 7,309,576 involves artificially inserting a NLS into the dopamine D1 receptor (DRD1), which allows the receptor to traffic from the cell membrane to the cell interior, and that the binding of antagonists to the receptor retained the receptor at the cell surface, while removal of the ligand allowed the receptor to continue to internalize from the cell surface. Both antagonists and agonists that selectively bound the receptor retained the receptor on the plasma membrane. GPR174 constructs were generated for use in a CRA-based compound screening assay. From this screen, the inventors initially identified compounds of formula I-VI, as described herein and included in Table 1.
Target sequence in this assay (Q9BXC1 1-292 limits assumed): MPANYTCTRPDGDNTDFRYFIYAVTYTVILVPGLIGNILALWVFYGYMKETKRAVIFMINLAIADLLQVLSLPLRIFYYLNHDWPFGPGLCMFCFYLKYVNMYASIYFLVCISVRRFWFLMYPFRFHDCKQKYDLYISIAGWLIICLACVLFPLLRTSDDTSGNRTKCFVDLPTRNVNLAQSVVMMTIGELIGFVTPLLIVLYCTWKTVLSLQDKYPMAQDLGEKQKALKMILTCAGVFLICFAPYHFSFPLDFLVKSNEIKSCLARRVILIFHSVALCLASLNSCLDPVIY

[5] = system: CHRM1; experiment: CRA against CHRM1
Text: as §1
The inventors also sought to validate that the compounds identified using the CRA are modulatory compounds. To this end, the above-described CRA was used to screen a library for compounds that interact with three control non-orphan receptors, and the results of this screen were compared to the results of screening the same library for compound that were identified using a Fluorometric Imaging Plate Reader (FLIPR) assay, a conventional technique commonly used to identify compounds interacting with non-orphan GPCRs signaling through Ca^++. Three non-orphan GPCRs—Muscarinic acetylcholine receptor M1 (CHRM1), Adrenergic receptor alpha 1a (ADRA1a), and Neuropeptide S receptor (NPSR)—were screened against a 10,000-compound GPCR-focused library. Thirty interacting compound “hits” were identified using the CRA, and eighty-one hits were identified using the FLIPR for the CHRM1 receptor; 9 CRA hits and 29 FLIPR hits for the NPS receptor were identified; and 110 CRA hits and 110 FLIPR hits for ADRA1a.
In addition, the CRA can also provide the relative potencies of compounds against the target receptor.

[6] = system: human PBMC; experiment: IL-2 in supernatants of human PBMC stimulated with anti-CD3 and anti-CD28, ELISA; details: human PBMC donor 8, 24 hours post-stimulation; compound 10 1 μM, ZM-241385 0.1 μM, APCP 10 μM; FIG. 71
Protocol: Human PBMCs, obtained from a human volunteer donor (donor 8), were dispensed in X-vivo15 media (Lonza) supplemented with Glutamax, penicillin and streptomycin, at density of 1×10^6 cells/well in a 96-well flat-bottom plate and were cultured in quadruplicate for 3 hours in the presence of:
GPR174 inhibitory compound 10 (1 μM);
CD73 inhibitory compound, adenosine 5′-(a,p-methylene)diphosphate sodium salt (APCP, Tocris, 10 μM);
Combinations of the above agents;
After which 1 μg/mL anti-CD3 antibody (UCHT1) and 0.1 μg/mL anti-CD28 antibody (CD28.2) were added to activate T cells. Supernatants from these cells were collected at 24 hours post-stimulation and the levels of IL-2 were determined by ELISA.

[7] = no ZM, 0.3 μM (compound 20: 3 μM)
[8] = no ZM, 1 μM (compound 20: 10 μM)
[9] = with ZM-241385 0.1 μM, 0.3 μM (compound 20: 3 μM)
[10] = with ZM-241385 0.1 μM, 1 μM (compound 20: 10 μM), label ZM = ZM alone

T2 sequence (P07550 whole entry): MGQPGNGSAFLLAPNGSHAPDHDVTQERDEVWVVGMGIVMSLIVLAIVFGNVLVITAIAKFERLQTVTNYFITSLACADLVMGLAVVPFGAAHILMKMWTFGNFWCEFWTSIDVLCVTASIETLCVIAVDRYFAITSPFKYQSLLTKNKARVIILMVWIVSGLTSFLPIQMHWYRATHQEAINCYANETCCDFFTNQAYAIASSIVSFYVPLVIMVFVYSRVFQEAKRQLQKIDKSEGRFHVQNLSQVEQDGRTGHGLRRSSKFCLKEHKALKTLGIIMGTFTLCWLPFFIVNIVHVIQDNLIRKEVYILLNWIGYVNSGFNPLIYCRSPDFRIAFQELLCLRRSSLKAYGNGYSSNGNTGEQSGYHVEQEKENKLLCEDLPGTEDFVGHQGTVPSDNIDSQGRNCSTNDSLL

Compound	synergy with ZM on GM-CSF (greater than the sum of the increases with each inhibitor alone) [3]	synergy with ZM on IFN-γ (greater than the sum of the increases with each inhibitor alone) [3]	synergy with ZM on IL-2 (greater than the sum of the increases with each inhibitor alone) [3]	synergy with ZM on TNF (greater than the sum of the increases with each inhibitor alone) [3]	GM-CSF, ratio relative to vehicle control [3, 7]	IFN-γ, ratio relative to vehicle control [3, 7]	IL-2, ratio relative to vehicle control [3, 7]	TNF, ratio relative to vehicle control [3, 7]	GM-CSF, ratio relative to vehicle control [3, 8]	IFN-γ, ratio relative to vehicle control [3, 8]	IL-2, ratio relative to vehicle control [3, 8]	TNF, ratio relative to vehicle control [3, 8]	GM-CSF, ratio relative to vehicle control [3, 9]	IFN-γ, ratio relative to vehicle control [3, 9]	IL-2, ratio relative to vehicle control [3, 9]	TNF, ratio relative to vehicle control [3, 9]	GM-CSF, ratio relative to vehicle control [3, 10]	IFN-γ, ratio relative to vehicle control [3, 10]	IL-2, ratio relative to vehicle control [3, 10]	TNF, ratio relative to vehicle control [3, 10]	also measured
O=[N+]([O-])c1cc(F)c(N2CCCCC2)cc1N1CCN(S(=O)(=O)c2ccccc2)CC1 [compound 11]	synergized with ZM	synergized with ZM	synergized with ZM	synergized with ZM	2.9*	1.9*	1.4*	1.7*	2.4*	1.8*	1.3	1.7*	4.4*	2.9*	1.8*	2.6*	4.9*	3.4*	1.9*	3.0*	Gs pathway in the presence of GPR174 (CRE-Luc reporter) ([1]; increasing concentrations of compound): inhibited; Fold decrease in Gs signaling activity ([1]; pCRE-Luc reporter): 3.1 fold; EC50 ([1]; pCRE-Luc reporter, multiple values = separate experiments): 0.5 µM and 1.3 µM and 0.6 µM; Gs pathway in the presence of ADBR2 (CRE-Luc reporter) [2]: did not inhibit; EC50 ([4]; multiple values = separate experiments): > 1.1 µM
Cc1ccccc1Nc1nnc(-c2ccc(C)c(S(N)(=O)=O)c2)c2ccccc12 [compound 20]	synergized with ZM	synergized with ZM	synergized with ZM	synergized with ZM	2.7*	1.2	1.3	1.4*	2.3*	1.5*	1.4*	1.5*	4.6*	1.8*	1.6*	1.9*	4.4*	2.1*	2.1*	2.4*	Human GPR174 CRE Activity: nature of the compound (IA, antagonist, NM) ([1]; pCRE-Luc reporter): Antagonist or allosteric modulator; activity against CHRM1 in the CRA (FIG. 5B) [5]: do not show any activity; dose-response curve against GPR174 in the CRA (FIG. 5A) [4]: show a dose-response curve
adenosine 5′-(a,p-methylene)diphosphate sodium salt [APCP]																					increase of IL-2 levels [6]: 1.5 fold
